{"source": "patent US5912227A", "about": "“Method of enhancing nutrient uptake” (North Carolina State University, priority 1995, dated 1999)", "molecules": {"B1": {"name": "recombinant bovine growth hormone: recombinant bovine growth hormone injected in sheep (cited Ph.D. thesis) (protein, UniProt P01246 27-217, looked up)", "Somatotropin": "AFPAMSLSGLFANAVLRAQHLHQLAADTFKEFERTYIPEGQRYSIQNTQVAFCFSETIPAPTGKNEAQQKSDLELLRISLLLIQSWLGPLQFLSRVFTNSLVFGTSDRVYEKLKDLEEGILALMRELEDGTPRAGQILKQTYDKFDTNMRSDDALLKNYGLLSCFRKDLHKTETYLRVMKCRRFGEASCAF"}}, "key": {"[1]": {"tested_on": "jejunal glucose transport (S-GLT1 transporter)", "assay": "Jejunal glucose transport ([3H]3-O-methyl-D-glucose uptake by jejunal rings of treated mice, with and without phlorizin)", "format": "in vivo, swiss-webster mice", "conditions": "for Glucose Transport, Total / Glucose Transport, Active / Glucose Transport, Passive: mid-jejunal rings of treated mice; for Glucose Transport, Total: 37° C. without phlorizin minus 4° C. with phlorizin; for Glucose Transport, Active: difference of 3OMG accumulation with and without phlorizin, 37° C.; for Glucose Transport, Passive: with phlorizin, 37° C. minus 4° C.", "experimental": "(§1) Two month old male swiss-webster mice obtained from Charles River Laboratory were subcutaneously injected in the post-scapula region once a day for three days with one of the following treatments: (1) Saline treatment: 0.25 ml of sterile physiological saline (0.9% saline) (n=9 mice); (2) Peptide YY (PYY) treatment: 300 μg per kilogram body weight of Peptide YY in 0.25 ml sterile physiological saline solution (n=6 mice); (c) Somatostatin treatment: 120 μg per kilogram body weight of somatostatin in 0.25 ml sterile physiological saline solution (n=6 mice); or (4) Transforming Growth Factor alpha (TGFα) treatment: 300 μg per kilogram body weight of TGFα in 0.25 ml sterile physiological saline solution (n=6 mice).\nA sample of mid-jejunal tissue was dissected out of each of the small intestines removed in Example 2. As described below, each glucose transport assay was replicated three times per mouse, and an assay to measure non-specific binding was replicated twice per mouse. Thus each mid-jejunal sample (one from each mouse) was cut into eight one millimeter rings.\nThe assay for glucose transport was a modification of the assay validated by Black, Comp. Biochem Physiol. 90A:379 (1988) to measure glucose transport in embryonic chick duodenum. Additional details of the present method as modified for mouse intestine are discussed in Bird et al., J. Nutr. 124:231 (1994), and the method is validated for mice in Bird et al., Nutr. Research, 14:411 […]. The transport buffer utilized for jejunal samples was similar to that described by Black (1988) but also contained 0.5 mmol/L 3-O-methyl-D-glucose (3 OMG), 0.5 mmol/L B-hydroxybutyrate, and 2.5 mmol/L glutamine. The assay was started by transferring intestinal rings preincubated at 37° C. for 5 minutes in transport buffer to beakers containing 28 MBq/L of [^3 H]3 OMG in 2 ml of buffer. To differentiate active from passive transport, phlorizin (phloretin-2'-β-D-glucoside; Sigma Chemicals, St. Louis, Mo.) was utilized. Phlorizin is a specific inhibitor of the S-GLT1 transporter (a sodium dependent active transporter) located on the luminal surface of absorptive epithelium (see Brot-Laroche and Alvarado, Mechanisms of sugar transport across the intestinal brush border membrane, IN: Intestinal Transport: Fundamental and Comparative Aspects, Gilles-Baillin and Gilles (Eds.), Springer-Verlag, Berlin (1983)). The S-GLT1 transporter is one of a family of transporter proteins, and actively transports glucose.\nUptake of [^3 H]3 OMG was stopped after 5 minutes by rinsing samples in 3 ml of ice-cold mannitol (300 mmol/L). Labelled substrate was extracted from the tissue into 2 mL of trichloroacetic acid (25 g/L) at 37° C. for 60 minutes in a shaking water bath. Samples were removed, blotted and weighed. The extract was centrifuged at 2000×g for 15 minutes at 4° C., and then 1 ml of the decanted supernatant was dispersed in 5 ml of Ecolite (+) scintillation cocktail (ICN Biomedicals, Cleveland, Ohio) and counted for 10 minutes in a scintillation counter. Duplicate aliquots (100 uL) of incubation media containing approximately 2.8 kBq [^3 H]3 OMG (both with and without phlorizin) and a blank were counted with each set of samples.\nActive glucose transport was calculated as the difference between 3 OMG accumulation in media with and without phlorizin. Passive transport was calculated as the difference between 3 OMG accumulation in the presence of phlorizin at 37° C. and 4° C. Total transport is the difference between 3 OMG accumulation at 37° C., in the absence of phlorizin, and accumulation at 4° C. in the presence of phlorizin. Transport data are presented as pmol glucose/(min-mg wet tissue). Fasting body weight of the mice was used to express data on a body weight basis."}, "[2]": {"assay": "Visceral organ weight of treated mice", "format": "in vivo, swiss-webster mice", "experimental": "as §1\nAfter the treated mice were sacrificed by cervical dislocation as described in Example 2, the visceral organs were dissected out and the liver, stomach, kidneys, colon and caecum of each mouse was weighed. The kidneys of the PYY treatment group were heavier than those of other treatment groups for unknown reasons."}, "[3]": {"tested_on": "jejunal oxygen consumption", "assay": "Jejunal oxygen consumption of treated mice, with and without ouabain", "format": "in vivo, swiss-webster mice", "conditions": "jejunum of treated mice, 37° C.; for Oxygen Consumption, With Ouabain, Dry / Oxygen Consumption, Without Ouabain, Dry: dry tissue; for Oxygen Consumption, With Ouabain, Wet / Oxygen Consumption, Without Ouabain, Wet: wet tissue", "experimental": "as §1\nMeasurement of oxygen consumption rate was determined as described by McBride and Milligan, Br. J. Nutr., 53:605 (1985) for ovine duodenal mucosa, and as described by Bird et al., J. Nutr. 124:231 (1994) for mice jejunum, using an oxygen monitor and an incubation bath fitted with an O2 electrode (Yellow Springs Instruments, Yellow Springs, Ohio, USA). Adjacent jejunal ring samples (two from each mouse jejunum) were prepared by rinsing in ice-cold HEPES transport buffer to remove digesta residues. The rate of O2 uptake of the duplicate jejunal samples, constantly stirred in 4 ml of media at 37° C., was electronically recorded. After 3 minutes, 100 uL of 12.6 mmol/L ouabain (Sigma Chemical), a specific inhibitor of Na+, K+-ATPase, was added to the chamber and oxygen consumption was plotted for 3 minutes. Dry matter content of the tissue pieces was then measured by drying the jejunal samples at 80° C. in a forced draught oven for 48 hours."}, "[4]": {"tested_on": "Na-dependent active glucose uptake", "assay": "Energetic efficiency of Na-dependent active glucose uptake", "format": "in vivo, swiss-webster mice", "conditions": "compared with saline control; 1 nmol O2 assumed = 5 nmol ATP; FIG. 1", "experimental": "The energetic efficiency of Na-dependent active glucose uptake in the PYY treated mice and the saline control treated mice was calculated, assuming that consumption of 1 nmol of O2 (as measured in Example 5, above) indicated expenditure of 5 nmol of ATP (Gill et al., J. Nutr. 119:1287-1299 (1989)."}, "[5]": {"tested_on": "water and electrolyte absorption from the small intestine", "conditions": "unfed dogs, peripheral infusion; cited from earlier work"}, "[6]": {"tested_on": "sodium-dependent duodenal active transport", "conditions": "sheep injected with recombinant bovine growth hormone; cited from earlier work"}, "[7]": {"conditions": "mice, s.c. once a day for three days"}}}
{"molecule": "C[C@H](N)C(=O)NCC(=O)N[C@H]1CSSC[C@@H](C(=O)O)NC(=O)[C@H](CO)NC(=O)[C@H]([C@@H](C)O)NC(=O)[C@H](Cc2ccccc2)NC(=O)[C@H]([C@@H](C)O)NC(=O)[C@H](CCCCN)NC(=O)[C@H](Cc2c[nH]c3ccccc23)NC(=O)[C@H](Cc2ccccc2)NC(=O)[C@H](Cc2ccccc2)NC(=O)[C@H](CC(N)=O)NC(=O)[C@H](CCCCN)NC1=O", "note": "[Somatostatin, somatostatin]", "values": [{"measurement": "Glucose Transport, Total", "setting": "[1]", "result": 371, "unit": "pmol/min/mg tissue"}, {"measurement": "Glucose Transport, Active", "setting": "[1]", "result": 303, "unit": "pmol/min/mg tissue"}, {"measurement": "Glucose Transport, Passive", "setting": "[1]", "result": 67, "unit": "pmol/min/mg tissue"}, {"measurement": "Organ Weight, Caecum", "setting": "[2]; [7]", "result": 156, "unit": "mg"}, {"measurement": "Organ Weight, Colon", "setting": "[2]; [7]", "result": 316, "unit": "mg"}, {"measurement": "Organ Weight, Kidneys", "setting": "[2]; [7]", "result": 534, "unit": "mg"}, {"measurement": "Organ Weight, Liver", "setting": "[2]; [7]", "result": 1441, "unit": "mg"}, {"measurement": "Organ Weight, Stomach", "setting": "[2]; [7]", "result": 232, "unit": "mg"}, {"measurement": "Oxygen Consumption, With Ouabain, Dry", "setting": "[3]", "result": 181.29, "unit": "µL/min/g"}, {"measurement": "Oxygen Consumption, Without Ouabain, Dry", "setting": "[3]", "result": 224.77, "unit": "µL/min/g"}, {"measurement": "Oxygen Consumption, With Ouabain, Wet", "setting": "[3]", "result": 35.13, "unit": "µL/min/g"}, {"measurement": "Oxygen Consumption, Without Ouabain, Wet", "setting": "[3]", "result": 43.62, "unit": "µL/min/g"}]}
{"molecule": "PYY: 36 amino acid hormonal peptide, produced by \"L type\" endocrine cells; member of the pancreatic polypeptide family [Peptide YY]", "values": [{"measurement": "increase in active glucose transport expressed per unit of body weight (Table 2 footnote)", "setting": "[1]; compared to saline control", "result": 46}, {"measurement": "increase in active glucose transport expressed per unit of fasting body weight", "setting": "[1]; compared to the saline control group", "result": 46, "unit": "%"}, {"measurement": "Glucose Transport, Total", "setting": "[1]", "result": 431, "unit": "pmol/min/mg tissue"}, {"measurement": "Glucose Transport, Active", "setting": "[1]", "result": 369, "unit": "pmol/min/mg tissue"}, {"measurement": "Glucose Transport, Passive", "setting": "[1]", "result": 63, "unit": "pmol/min/mg tissue"}, {"measurement": "active glucose transport, comparison with saline control group", "setting": "[1]; per milligram of intestinal tissue", "result": "statistically significant increase"}, {"measurement": "Organ Weight, Caecum", "setting": "[2]; mouse, in vivo, sc", "result": 134, "unit": "mg"}, {"measurement": "Organ Weight, Colon", "setting": "[2]; mouse, in vivo, sc", "result": 315, "unit": "mg"}, {"measurement": "Organ Weight, Kidneys", "setting": "[2]; mouse, in vivo, sc", "result": 468, "unit": "mg"}, {"measurement": "Organ Weight, Liver", "setting": "[2]; mouse, in vivo, sc", "result": 1274, "unit": "mg"}, {"measurement": "Organ Weight, Stomach", "setting": "[2]; mouse, in vivo, sc", "result": 230, "unit": "mg"}, {"measurement": "Oxygen Consumption, With Ouabain, Dry", "setting": "[3]", "result": 194.22, "unit": "µL/min/g"}, {"measurement": "Oxygen Consumption, Without Ouabain, Dry", "setting": "[3]", "result": 253.93, "unit": "µL/min/g"}, {"measurement": "Oxygen Consumption, With Ouabain, Wet", "setting": "[3]", "result": 36.54, "unit": "µL/min/g"}, {"measurement": "Oxygen Consumption, Without Ouabain, Wet", "setting": "[3]", "result": 47.71, "unit": "µL/min/g"}, {"measurement": "metabolic cost of total glucose uptake (total nmol ATP expended per nmol of 3OMG uptake)", "setting": "[4]", "result": "less"}, {"measurement": "water and electrolyte absorption from the small intestine", "setting": "[5]", "result": "dose-dependent increase"}]}
{"molecule": "Transforming Growth Factor alpha [TGFα]", "values": [{"measurement": "Glucose Transport, Total", "setting": "[1]", "result": 410, "unit": "pmol/min/mg tissue"}, {"measurement": "Glucose Transport, Active", "setting": "[1]", "result": 347, "unit": "pmol/min/mg tissue"}, {"measurement": "Glucose Transport, Passive", "setting": "[1]", "result": 64, "unit": "pmol/min/mg tissue"}, {"measurement": "Organ Weight, Caecum", "setting": "[2]; mouse, in vivo, sc", "result": 156, "unit": "mg"}, {"measurement": "Organ Weight, Colon", "setting": "[2]; mouse, in vivo, sc", "result": 379, "unit": "mg"}, {"measurement": "Organ Weight, Kidneys", "setting": "[2]; mouse, in vivo, sc", "result": 522, "unit": "mg"}, {"measurement": "Organ Weight, Liver", "setting": "[2]; mouse, in vivo, sc", "result": 1442, "unit": "mg"}, {"measurement": "Organ Weight, Stomach", "setting": "[2]; mouse, in vivo, sc", "result": 243, "unit": "mg"}, {"measurement": "Oxygen Consumption, With Ouabain, Dry", "setting": "[3]", "result": 179.01, "unit": "µL/min/g"}, {"measurement": "Oxygen Consumption, Without Ouabain, Dry", "setting": "[3]", "result": 238.76, "unit": "µL/min/g"}, {"measurement": "Oxygen Consumption, With Ouabain, Wet", "setting": "[3]", "result": 36.03, "unit": "µL/min/g"}, {"measurement": "Oxygen Consumption, Without Ouabain, Wet", "setting": "[3]", "result": 47.96, "unit": "µL/min/g"}]}
{"molecule": "B1", "values": [{"measurement": "increase of sodium-dependent duodenal active transport of glucose", "setting": "[6]", "result": "approximately 60%"}, {"measurement": "increase of transport of proline", "setting": "[6]", "result": "approximately 30%"}]}
